Assay results taken from patent publication US11806326B2, “Methods for dopamine modulation in human neurologic diseases” (priority 2018, dated 2023).
Where two headings read alike, the source gives them in different places.

Legend:
[1] = system: spontaneously hypertensive rats; conditions: cited from earlier work
tyrosine hydroxylase [2] = target: tyrosine hydroxylase (Homo sapiens, UniProt P07101); conditions: cited from earlier work
tyrosine hydroxylase [3] = target: T1, tyrosine hydroxylase (Bos taurus, UniProt P17289); conditions: cited from earlier work
T1 construct: in bovine adrenal gland preparations; from tissue; host or cells: bovine (beef) adrenal gland
T1 sequence (P17289 1-491): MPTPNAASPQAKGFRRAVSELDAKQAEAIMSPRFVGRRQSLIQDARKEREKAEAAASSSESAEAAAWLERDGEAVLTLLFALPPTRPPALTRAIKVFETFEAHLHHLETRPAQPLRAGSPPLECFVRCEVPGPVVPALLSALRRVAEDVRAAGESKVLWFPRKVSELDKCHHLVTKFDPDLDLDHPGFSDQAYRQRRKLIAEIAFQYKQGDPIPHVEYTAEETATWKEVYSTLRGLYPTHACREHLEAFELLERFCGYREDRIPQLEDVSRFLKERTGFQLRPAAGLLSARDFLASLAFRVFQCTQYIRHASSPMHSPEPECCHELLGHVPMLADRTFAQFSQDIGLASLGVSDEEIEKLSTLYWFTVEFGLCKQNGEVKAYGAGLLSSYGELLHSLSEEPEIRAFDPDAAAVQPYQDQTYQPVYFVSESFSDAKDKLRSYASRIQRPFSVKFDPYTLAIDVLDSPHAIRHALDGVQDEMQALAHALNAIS

tyrosine hydroxylase [4] = conditions: cited from earlier work
[5] = delivered orally, cited from earlier work
[6] = system: dopaminergic iPS cells originating from DJ-1 homozygous Parkinson's patients; assay: Chronic inhibition of dopamine synthesis in dopaminergic iPS cells from DJ-1 homozygous Parkinson's patients; assay type: cell-based, human; conditions: chronic AMPT treatment, FIG. 5
[7] = Table 1B, catecholamine analogs inhibiting tyrosine hydroxylase, read-out: Concentration for 50% Inhibition
[8] = Table 1A, amino acid analogs inhibiting tyrosine hydroxylase, read-out: Concentration for 50% Inhibition
[9] = Table 1B, concentration 10^−4 M
[10] = Table 1A, concentration 10^−4 M

tyrosine hydroxylase (Homo sapiens, UniProt P07101), sequence (P07101 whole entry): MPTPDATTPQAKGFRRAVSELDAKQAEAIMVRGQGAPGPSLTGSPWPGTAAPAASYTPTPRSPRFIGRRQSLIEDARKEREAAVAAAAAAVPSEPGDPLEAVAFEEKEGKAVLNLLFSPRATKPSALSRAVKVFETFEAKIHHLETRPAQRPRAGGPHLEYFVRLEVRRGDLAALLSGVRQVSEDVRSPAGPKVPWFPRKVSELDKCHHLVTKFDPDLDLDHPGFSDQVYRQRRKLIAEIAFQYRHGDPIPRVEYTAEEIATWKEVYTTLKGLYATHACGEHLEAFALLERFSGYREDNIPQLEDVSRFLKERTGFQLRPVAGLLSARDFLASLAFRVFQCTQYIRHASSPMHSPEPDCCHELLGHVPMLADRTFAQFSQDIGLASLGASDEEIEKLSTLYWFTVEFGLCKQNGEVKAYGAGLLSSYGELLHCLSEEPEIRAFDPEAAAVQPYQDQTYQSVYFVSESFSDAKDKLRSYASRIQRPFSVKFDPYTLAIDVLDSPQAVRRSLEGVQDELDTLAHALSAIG

For `CCC[C@H]1CCC(=C2C(=O)CCC2=O)O1` [Oudenone, oudenone], the “effect on blood pressure” value [1] is given as “reduce blood pressure” and the “tyrosine hydroxylase inhibition (in words)” value (tyrosine hydroxylase [2]; directly measured) is given as “inhibit tyrosine hydroxylase”.

For `NC[C@@H](O)c1ccc(O)c(O)c1` [L-norepinephrine], the IC50 (tyrosine hydroxylase [3]; [7]) is listed as 1000 µM.

In the case of `C[C@@](N)(Cc1ccc(O)cc1)C(=O)O` [α-methyl-D-tyrosine], the IC50 (tyrosine hydroxylase [3]; [8]) is listed as greater than 1000 µM.

In the case of `CCCC(C(N)=O)c1ccc(O)c(O)c1` (stereo not drawn) [3,4-dihydroxyphenyl-propyl-acetamide], the IC50 (tyrosine hydroxylase [3]; [7]) is given as 20 µM and the “% Inhibition” value (tyrosine hydroxylase [4]; [9]) is given as 84%.

In the case of `COc1ccc(CC(C)(N)C(=O)O)cc1Cl` (racemic) [3-chloro-4-methoxy-α-methyl-DL-phenylalanine], the IC50 (tyrosine hydroxylase [3]; [8]) is listed as 500 µM.

For `CNC[C@H](O)c1ccc(O)c(O)c1` [L-epinephrine], the “% Inhibition” value (tyrosine hydroxylase [4]; [9]) is given as 35%.

For `CNC[C@H](O)c1ccc(O)c(O)c1` [D-epinephrine], the “% Inhibition” value (tyrosine hydroxylase [4]; [9]) is listed as 47%.

For `NC(Cc1ccc(F)cc1)C(=O)O` (racemic) [DL-p-fluoro-phenylalanine], the “% Inhibition” value (tyrosine hydroxylase [4]; [10]) is given as 61%.

For `CC(N)(Cc1ccc(O)c(F)c1)C(=O)O` (racemic) [3-fluoro-α-methyl-DL-tyrosine], the IC50 (tyrosine hydroxylase [3]; [8]) is listed as 200 µM.

For `CC(N)(Cc1ccc(O)c(I)c1)C(=O)O` (racemic) [3-iodo-α-methyl-DL-tyrosine], the IC50 (tyrosine hydroxylase [3]; [8]) is given as 0.3 µM.

For `N[C@@H](Cc1ccc(O)c(O)c1)C(=O)O` [3,4-hydroxy-L-phenylalanine], the IC50 (tyrosine hydroxylase [3]; [7]) is given as 2000 µM.

For `C[C@](N)(Cc1ccc(O)cc1)C(=O)O` [α-methyl-L-tyrosine], the IC50 (tyrosine hydroxylase [3]; bovine adrenal gland preparations, read-out: concentration inhibiting tyrosine hydroxylase by 50%) is listed as 25 µM, the “% Inhibition” value (tyrosine hydroxylase [4]; [10]) is listed as 86% and the “inhibition of tyrosine hydroxylase” value (tyrosine hydroxylase [4]; concentration of 10^−4M, guinea pig brain particle preparations) is listed as 86%. For the same molecule, the “metabolites recovered in the urine” value ([5]; alpha-methyl-dopa, alpha-methyl-dopamine, alpha-methyl-norepinephrine) was “relatively little”, the oral absorption [5] was roughly 69% and the “deposition of α-synuclein” value [6] was “blunted deposition of α-synuclein”. For the same molecule, the “levels of oxidized dopamine” value [6] was “lower levels of oxidized dopamine” and the oxidative stress [6] was “reduced oxidative stress”.

In the case of `N[C@@H](Cc1c[nH]c2ccccc12)C(=O)O` [L-tryptophan], the IC50 (tyrosine hydroxylase [3]; [8]) is given as greater than 1000 µM and the “% Inhibition” value (tyrosine hydroxylase [4]; [10]) is given as 50%.

In the case of `NC[C@H](O)c1ccc(O)c(O)c1` (racemic) [DL-norepinephrine], the “% Inhibition” value (tyrosine hydroxylase [4]; Table 1B, concentration 2 × 10^−4 M) is listed as 53%.

In the case of `C[C@H]1O[C@@H](c2ccc3c(c2O)C(=O)C2=C(C3=O)[C@@]3(O)C(=O)C[C@](C)(O)C[C@@]3(O)C=C2)C[C@@H](O)[C@@H]1O` [aquayamycin], the “potency as tyrosine hydroxylase inhibitor (in words)” value (tyrosine hydroxylase [2]; compared with 3-iodo-α-methyl-DL-tyrosine) is given as “near that reported for 3-iodo-α-methyl-DL-tyrosine”.

For `N[C@@H](Cc1ccc(O)c(I)c1)C(=O)O` [3-iodo-L-tyrosine], the IC50 (tyrosine hydroxylase [3]; [8]) is listed as 0.5 µM.

In the case of `N[C@@H](Cc1cc(Br)c(O)c(Br)c1)C(=O)O` [3,5-dibromo -L-tyrosine], the IC50 (tyrosine hydroxylase [3]; [8]) is given as 500 µM.

For `N[C@H](Cc1ccc(O)c(O)c1)C(=O)O` [3,4-hydroxy-D-phenylalanine], the IC50 (tyrosine hydroxylase [3]; [7]) is listed as greater than 4000 µM.

In the case of `N[C@@H](Cc1ccc(O)c(Cl)c1)C(=O)O` [3-chloro-L-tyrosine], the IC50 (tyrosine hydroxylase [3]; [8]) is given as 10 µM.

For `C[C@](N)(Cc1ccc(O)c(O)c1)C(=O)O` [α-methyl-3,4-dhydroxy-L-phenylalanine], the IC50 (tyrosine hydroxylase [3]; [7]) is given as 1500 µM.

For `CC(N)(Cc1ccc(O)c(Cl)c1)C(=O)O` (racemic) [3-chloro-α-methyl-DL-tyrosine], the IC50 (tyrosine hydroxylase [3]; [8]) is listed as 5 µM.

In the case of `CC(N)(Cc1cccc(O)c1)C(=O)O` (racemic) [α-methyl-m-DL-tyrosine], the IC50 (tyrosine hydroxylase [3]; [8]) is listed as greater than 1000 µM and the “% Inhibition” value (tyrosine hydroxylase [4]; Table 1A, concentration 2 × 10−4 M) is listed as 92%.

In the case of `CC(N)(Cc1ccccc1)C(=O)O` (racemic) [α-methyl-DL-phenylalanine], the IC50 (tyrosine hydroxylase [3]; [8]) is listed as 80 µM.

In the case of `N[C@H](Cc1c[nH]c2ccccc12)C(=O)O` [D-tryptophan], the “% Inhibition” value (tyrosine hydroxylase [4]; [10]) is listed as 0%.

In the case of `N[C@@H](Cc1ccccc1)C(=O)O` [L-phenylalanine], the IC50 (tyrosine hydroxylase [3]; [8]) is given as 200 µM and the “% Inhibition” value (tyrosine hydroxylase [4]; [10]) is given as 78%.

For `N[C@@H](Cc1ccc(O)c(O)c1)C(=O)O` [L-dopa], the “% Inhibition” value (tyrosine hydroxylase [4]; [9]) is listed as 68%.

For `N[C@H](Cc1ccc(O)c(O)c1)C(=O)O` [D-dopa], the “% Inhibition” value (tyrosine hydroxylase [4]; [9]) is listed as 0%.

For `NCCc1ccc(O)c(O)c1` [dopamine], the “% Inhibition” value (tyrosine hydroxylase [4]; [9]) is listed as 56%.

For `CC(N)(Cc1ccc(O)c(Br)c1)C(=O)O` (racemic) [3-bromo-α-methyl-DL-tyrosine], the IC50 (tyrosine hydroxylase [3]; [8]) is listed as 1.5 µM.

For `N[C@H](Cc1ccccc1)C(=O)O` [D-phenylalanine], the IC50 (tyrosine hydroxylase [3]; [8]) is given as greater than 1000 µM and the “% Inhibition” value (tyrosine hydroxylase [4]; [10]) is given as 7%.

For `NC(=O)Cc1ccc(O)c(O)c1` [3,4-dihydroxyphenyl-acetamide], the IC50 (tyrosine hydroxylase [3]; [7]) is given as 1000 µM.

In the case of `C[C@@](N)(Cc1ccc(O)c(O)c1)C(=O)O` [α-methyl-3,4-dhydroxy-D-phenylalanine], the IC50 (tyrosine hydroxylase [3]; [7]) is listed as greater than 8000 µM.
